Measured values reported in patent US20220274979A1 (Bayer Pharma Aktiengesellschaft, priority 2018, published 2022).

target: T1, hSOS1 (hSOS1-mediated loading of hK-RasG12C-GDP) (Homo sapiens, UniProt Q07889); assay: Biochemical Assay 3: hK-RasG12C activation assay by hSOS1 (loading with fluorescent GTP analog, HTRF); settings: no GTP
T1 construct: hSOS1 (amino acid 564-1049); made in house; host or cells: E. coli BL21 (DE3)
T1 sequence (Q07889 with tags, fused parts or gaps): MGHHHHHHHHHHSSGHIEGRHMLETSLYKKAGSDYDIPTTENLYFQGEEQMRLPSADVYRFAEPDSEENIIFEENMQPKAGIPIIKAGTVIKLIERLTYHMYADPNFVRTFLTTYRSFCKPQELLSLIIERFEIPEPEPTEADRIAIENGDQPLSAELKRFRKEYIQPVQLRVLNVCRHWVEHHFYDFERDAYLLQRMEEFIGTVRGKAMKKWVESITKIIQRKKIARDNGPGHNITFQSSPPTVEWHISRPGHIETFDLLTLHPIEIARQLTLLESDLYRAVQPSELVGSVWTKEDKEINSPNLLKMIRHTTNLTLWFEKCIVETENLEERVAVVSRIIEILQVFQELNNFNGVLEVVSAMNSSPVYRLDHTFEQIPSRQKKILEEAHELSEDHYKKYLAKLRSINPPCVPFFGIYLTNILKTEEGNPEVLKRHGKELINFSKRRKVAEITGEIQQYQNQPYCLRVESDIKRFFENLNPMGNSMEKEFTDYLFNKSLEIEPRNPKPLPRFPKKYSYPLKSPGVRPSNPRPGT
Text: Biochemical Assay 3: hK-RasG12C Activation Assay by hSOS1
K-Ras is a small GTPase that can bind GDP and GTP. The guanine nucleotide exchange factor SOS1 catalyzes the activation of K-Ras by promoting the exchange of GDP to GTP. SOS1 binds to K-Ras-GDP thereby opening the GDP-binding pocket to facilitate GDP release. Rebinding of excess nucleotide leads to dissociation of the K-Ras-SOS1 intermediate complex leaving K-Ras loaded with the nucleotide.
This assay quantifies human SOS1-(hSOS1-)mediated loading of human K-Ras^G12C-GDP (hK-RasG12C-GDP) with a fluorescent GTP-analog. Detection of successful loading is achieved by measuring homogenous time-resolved fluorescence resonance energy transfer (HTRF) from antiGST-Terbium (FRET donor) bound to GST-hK-RasG12C (see below) to the loaded fluorescent GTP analog (FRET-acceptor).
The fluorescent GTP-analog EDA-GTP-Dy647P1 (2′/3′-O-(2-Aminoethyl-carbamoyl)-guanosine-5′-triphosphate labelled with Dy647P1 (Dyomics GmbH, Germany)) was synthesized by Jena Biosciences GmbH (Germany) and supplied as a 1 mM aqueous solution.
The assay buffer contained 10 mM HEPES pH 7.4 (Applichem), 150 mM NaCl (Sigma), 5 mM MgCl2 (Sigma), 1 mM DTT (Thermofisher), 0.05% BSA Fraction V, pH 7.0, (ICN Biomedicals), 0.0025% (v/v) Igepal (Sigma).
Concentrations of protein batches used were optimized to be within the linear range of the HTRF signal. A hRas working solution was prepared in assay buffer containing typically 100 nM GST-hK-RasG12C and 2 nM antiGST-Tb (Cisbio, France). A hSOS1 working solution was prepared in assay buffer containing typically 20 nM hSOS1 and 200 nM EDA-GTP-Dy647P1. An inhibitor control solution was prepared in assay buffer containing 200 nM EDA-GTP-Dy647P1 without hSOS1.
Fifty nl of a 100-fold concentrated solution of the test compound in DMSO were transferred into a black microtiter test plate (384 or 1536, Greiner Bio-One, Germany) For this, either a Hummingbird liquid handler (Digilab, Mass., USA) or an Echo acoustic system (Labcyte, Calif., USA) was used.
All steps of the assay were performed at 20° C. A volume of 2.5 μl of the hRas working solution was added to all wells of the test plate using a Multidrop dispenser (Thermo Labsystems). After 10 min. preincubation, 2.5 μl of the hSOS1 working solution were added to all wells except for those wells at the side of the test plate that were subsequently filled with 2.5 μl of the inhibitor control solution. After […] incubation the fluorescence was measured with a Pherastar (BMG, Germany) using the HTRF module (excitation 337 nm, emission 1: 620 nm, emission 2:665 nm).
IC50 values were calculated by 4-Parameter fitting using a commercial software package (Genedata Screener, Switzerland).

`Cc1nc(NC(C)c2ccc(-c3ccccc3CN(C)C)s2)c2cc(OCCCN(C)C)ncc2n1` (stereo not shown) [Example 72, N-[1-(5-{2-[(dimethylamino)methyl]phenyl}thiophen-2-yl)ethyl]-6-[3-(dimethylamino)propoxy]-2-methylpyrido[3,4-d]pyrimidin-4-amine] and `Cc1nc(NC(C)c2ccc(-c3ccccc3CN(C)C)s2)c2cc(OC3CCS(=O)(=O)CC3)ncc2n1` (stereo not shown) [Example 67, N-[1-(5-{2-[(dimethylamino)methyl]phenyl}thiophen-2-yl)ethyl]-6-[(1,1-dioxidotetrahydro-2H-thiopyran-4-yl)oxy]-2-methylpyrido[3,4-d]pyrimidin-4-amine] are within 1.5-fold of each other in IC50: 49 nM for the first, 63.3 nM for the second.

First: Cc1nc(NC(C)c2ccc(-c3ccccc3CN(C)C)s2)c2cc(NCCn3cccn3)ncc2n1 (stereo not shown) [Example 54, N4-[1-(5-{2-[(dimethylamino)methyl]phenyl}-2-thienyl)ethyl]-2-methyl-N6-[2-(1H-pyrazol-1-yl)ethyl]pyrido[3,4-d]pyrimidine-4,6-diamine]
Second: Cc1nc(NC(C)c2ccc(-c3ccccc3CN(C)C)s2)c2cc(NCCN3CCOCC3)ncc2n1 (stereo not shown) [Example 48]
The IC50 of the first is 1.7-fold higher: 189 nM for the first, 114 nM for the second.

First: Cc1nc(N[C@H](C)c2cccc(Br)c2)c2nc(N3CCOCC3)ncc2n1 [Example 22, N-[(1R)-1-(3-bromophenyl)ethyl]-2-methyl-6-(morpholin-4-yl)pyrimido[5,4-d]pyrimidin-4-amine]
Second: Cc1nc(N[C@H](C)c2cccc(Br)c2)c2nc(N(C)C)ncc2n1 [Example 21]
The IC50 of the first is lower: 12500 nM for the first, at least 40000 nM for the second. The first is the more potent here.

First: Cc1nc(N[C@H](C)c2cccc(Br)c2)c2cc(Oc3cccc(C4=NCCN4C)c3)ncc2n1 [Example 41, N-[(1R)-1-(3-bromophenyl)ethyl]-2-methyl-6-[3-(1-methyl-4,5-dihydro-1H-imidazol-2-yl)phenoxy]pyrido[3,4-d]pyrimidin-4-amine]
Second: Cc1nc(NC(C)c2ccc(-c3ccccc3CN(C)C)s2)c2cc(Oc3cccc(C4=NCCN4C)c3)ncc2n1 (stereo not shown) [Example 58, N-[1-(5-{2-[(dimethylamino)methyl]phenyl}thiophen-2-yl)ethyl]-2-methyl-6-[3-(1-methyl-4,5-dihydro-1H-imidazol-2-yl)phenoxy]pyrido[3,4-d]pyrimidin-4-amine]
The IC50 of the first is 25-fold higher: 3880 nM for the first, 155 nM for the second. The second is the more potent here.

Compared with `CCOc1cc2c(NC(C)c3cccc4sccc34)nc(C)nc2cn1` (stereo not shown) [Example 3, N-[1-(1-benzothiophen-4-yl)ethyl]-6-ethoxy-2-methylpyrido[3,4-d]pyrimidin-4-amine], `COc1cc2c(NC(C)c3cccc4sccc34)nc(C)nc2cn1` (stereo not shown) [Example 4, N-[1-(1-benzothiophen-4-yl)ethyl]-6-methoxy-2-methylpyrido[3,4-d]pyrimidin-4-amine] is 1.6-fold higher in IC50: 355 nM for the first, 555 nM for the second.

Compared with `Cc1nc(N[C@H](C)c2cccc(Br)c2)c2nc(Oc3ccccc3)ncc2n1` [Example 25, N-[(1R)-1-(3-bromophenyl)ethyl]-2-methyl-6-phenoxypyrimido[5,4-d]pyrimidin-4-amine], `CCOc1ncc2nc(C)nc(N[C@H](C)c3cccc(Br)c3)c2n1` [Example 23, N-[(1R)-1-(3-bromophenyl)ethyl]-6-ethoxy-2-methylpyrimido[5,4-d]pyrimidin-4-amine] is lower in IC50: over 20000 nM for the first, 3280 nM for the second. The second is the more potent here.

`CCOc1cc2c(N[C@H](C)c3cccc(Br)c3)nc(C)nc2cn1` [Example 5, N-[(1R)-1-(3-bromophenyl)ethyl]-6-ethoxy-2-methylpyrido[3,4-d]pyrimidin-4-amine] and `CCOc1cc2c(N[C@H](C)c3cccc(Cl)c3)nc(C)nc2cn1` [Example 6] are within 1.5-fold of each other in IC50: 2150 nM for the first, 1690 nM for the second.

`Cc1nc(NC(C)c2ccc(-c3ccccc3CN(C)C)s2)c2cc(C3(O)CCN(C)C3=O)ncc2n1` (mixture of isomers) [Example 85, 3-(4-{[1-(5-{2-[(dimethylamino)methyl]phenyl}thiophen-2-yl)ethyl]amino}-2-methylpyrido[3,4-d]pyrimidin-6-yl)-3-hydroxy-1-methylpyrrolidin-2-one] and `Cc1nc(NC(C)c2ccc(-c3ccccc3CN(C)C)s2)c2cc(NC3CCOCC3)ncc2n1` (stereo not shown) [Example 53, N4-[1-(5-{2-[(dimethylamino)methyl]phenyl}-2-thienyl)ethyl]-2-methyl-N6-(tetrahydro-2H-pyran-4-yl)pyrido[3,4-d]pyrimidine-4,6-diamine] are within 1.5-fold of each other in IC50: 212 nM for the first, 239 nM for the second.

`COCCOc1ncc2nc(C)nc(N[C@H](C)c3cccc(Br)c3)c2n1` [Example 26, N-[(1R)-1-(3-bromophenyl)ethyl]-6-(2-methoxyethoxy)-2-methylpyrimido[5,4-d]pyrimidin-4-amine] and `COCCOc1ccc2nc(C)nc(N[C@H](C)c3cccc(Br)c3)c2n1` [Example 30, N-[(1R)-1-(3-bromophenyl)ethyl]-6-(2-methoxyethoxy)-2-methylpyrido[3,2-d]pyrimidin-4-amine] cannot be ordered by IC50: over 20000 nM for the first, at least 27800 nM for the second.

`COc1ccc2nc(C)nc(N[C@H](C)c3cccc(Br)c3)c2n1` [Example 28, N-[(1R)-1-(3-bromophenyl)ethyl]-6-methoxy-2-methylpyrido[3,2-d]pyrimidin-4-amine] and `CCOc1ccc2nc(C)nc(N[C@H](C)c3cccc(Br)c3)c2n1` [Example 29, N-[(1R)-1-(3-bromophenyl)ethyl]-6-ethoxy-2-methylpyrido[3,2-d]pyrimidin-4-amine] cannot be ordered by IC50: over 20000 nM for the first, over 20000 nM for the second.

`CC(=O)NCCNc1cc2c(N[C@H](C)c3cccc(Br)c3)nc(C)nc2cn1` [Example 44, N-{2-[(4-{[(1R)-1-(3-bromophenyl)ethyl]amino}-2-methylpyrido[3,4-d]pyrimidin-6-yl)amino]ethyl}acetamide] and `Cc1nc(N[C@H](C)c2cccc(Br)c2)c2cc(NCCn3ccnc3)ncc2n1` [Example 84, N4-[(1R)-1-(3-bromophenyl)ethyl]-N6-[2-(1H-imidazol-1-yl)ethyl]-2-methylpyrido[3,4-d]pyrimidine-4,6-diamine] are within 1.5-fold of each other in IC50: 1640 nM for the first, 1210 nM for the second.

`Cc1nc(NC(C)c2ccc(-c3ccccc3CN(C)C)s2)c2cc(N3CC(NC(=O)CCCn4c(-c5ccccn5)nc(C)c4C)C3)ncc2n1` (stereo not shown) [Example 87, N-[1-(4-{[1-(5-{2-[(dimethylamino)methyl]phenyl}thiophen-2-yl)ethyl]amino}-2-methylpyrido[3,4-d]pyrimidin-6-yl)azetidin-3-yl]-4-[4,5-dimethyl-2-(pyridin-2-yl)-1H-imidazol-1-yl]butanamide] and `Cc1nc(NC(C)c2ccc(-c3ccccc3CN(C)C)s2)c2cc(N3CC(NC(=O)C4CCCCC4)C3)ncc2n1` (stereo not shown) [Example 90, N-[1-(4-{[1-(5-{2-[(dimethylamino)methyl]phenyl}thiophen-2-yl)ethyl]amino}-2-methylpyrido[3,4-d]pyrimidin-6-yl)azetidin-3-yl]cyclohexanecarboxamide] are within 1.5-fold of each other in IC50: 228 nM for the first, 190 nM for the second.

`Cc1nc(N[C@H](C)c2cccc(Br)c2)c2cc(N3CCNC(=O)C3)ncc2n1` [Example 45] and `Cc1nc(N[C@H](C)c2cccc(Br)c2)c2cc(N3CCN(Cc4cccnc4)CC3)ncc2n1` [Example 43, N-[(1R)-1-(3-bromophenyl)ethyl]-2-methyl-6-[4-(pyridin-3-ylmethyl)piperazin-1-yl]pyrido[3,4-d]pyrimidin-4-amine] are within 1.5-fold of each other in IC50: 459 nM for the first, 446 nM for the second.

First: Cc1nc(N[C@H](C)c2cccc(Br)c2)c2cc(OCCN(C)C)ncc2n1 [Example 78, N-[(1R)-1-(3-bromophenyl)ethyl]-6-[2-(dimethylamino)ethoxy]-2-methylpyrido[3,4-d]pyrimidin-4-amine]
Second: Cc1nc(NC(C)c2ccc(Br)s2)c2cc(F)ncc2n1 (stereo not shown) [Example 35]
The IC50 of the first is lower: 2270 nM for the first, over 20000 nM for the second.
